Measured values: patent publication US5086045A, “Antitumor antibiotic” (Bristol-Myers Squibb Company, priority 1990, dated 1992)
≈ marks a conversion by molar mass, not a printed value.

Key:
[1] = system: B. subtilis A9506-A; test: Antibacterial activity (MIC), serial two-fold agar dilution; type: cell-based; conditions: Bacillus subtilis, A9506A
Procedure: (§1) Antimicrobial activity of BMY-41339 was determined for a variety of bacteria by the serial two-fold agar dilution method.

[2] = system: E. coli A15119; test: as above; type: cell-based; conditions: Escherichia coli
Procedure: as §1

[3] = system: E. coli A20697; test: as above; type: cell-based; conditions: Escherichia coli
Procedure: as §1

[4] = system: E. coli A9751; test: as above; type: cell-based; conditions: Escherichia coli
Procedure: as §1

[5] = system: E. faecalis A20688; test: as above; type: cell-based; conditions: Enterococcus faecalis
Procedure: as §1

[6] = system: E. faecalis A25707; test: as above; type: cell-based; conditions: Enterococcus faecalis
Procedure: as §1

[7] = system: E. faecalis A25708; test: as above; type: cell-based; conditions: Enterococcus faecalis
Procedure: as §1

[8] = system: K. pneumoniae A20468; test: as above; type: cell-based; conditions: Klebsiella pneumoniae
Procedure: as §1

[9] = system: K. pneumoniae A9664; test: as above; type: cell-based; conditions: Klebsiella pneumoniae
Procedure: as §1

[10] = system: P. aeruginosa A20235; test: as above; type: cell-based; conditions: Pseudomonas aeruginosa
Procedure: as §1

[11] = system: P. aeruginosa A21508; test: as above; type: cell-based; conditions: Pseudomonas aeruginosa
Procedure: as §1

[12] = system: P. aeruginosa A9843; test: as above; type: cell-based; conditions: Pseudomonas aeruginosa
Procedure: as §1

[13] = system: P. vulgaris A21559; test: as above; type: cell-based; conditions: Proteus vulgaris
Procedure: as §1

[14] = system: S. aureus A20698; test: as above; type: cell-based; conditions: Staphylococcus aureus
Procedure: as §1

[15] = system: S. aureus A24407; test: as above; type: cell-based; conditions: Staphylococcus aureus
Procedure: as §1

[16] = system: S. aureus A9537; test: as above; type: cell-based; conditions: Staphylococcus aureus
Procedure: as §1

[17] = system: P388 leukemia; test: In vivo antitumor activity, P388 leukemia implanted ip, drug ip; parameters: species or system mouse
Procedure: The in vivo antitumor activity of BMY-41339 was determined in the standard P388 mouse leukemia model. A summary of the experiments performed using BMY-41339 is provided below.
DBA/2 and (Balb/c × DBA/2)F1 (CDF1) hybrid mice were purchased from Charles River Breeding Co. (Wilmington, MA). They were provided food and water ad libitum.
The P388 murine ascites leukemia was maintained by weekly in vivo passage in DBA/2 mice.
Esperamicin A1 and BMY-41339 were dissolved in ethanol. Further dilutions were made with 0.9% NaCl (saline) until the ethanol concentration (v/v) was 10%. All administrations were made, therefore, in a 10% ethanol in saline vehicle. For ip injections, the concentration of compound was adjusted according to the average initial body weight of each group of mice to be injected such that the desired dose would be contained in a 0.5 ml injection volume. The same procedure was used for iv compound administration except the injection volume was 0.2 ml.
Antitumor experiments were initiated by implanting […] P388 leukemia cells either ip or iv into CDF1 mice. BMY-41339 and esperamicin A1 (included as a positive reference compound), were injected either ip in mice implanted ip with P388, or iv in mice implanted iv with P388 on Day 2 post-implant only Eight different dose levels of BMY-41339, at two-fold increments, were evaluated in each of the two experiments performed.
A % T/C value of ≥ 125 was considered indicative of activity in these models.

[18] = Exp. 8102, ip, 0.025 mg/kg/dose
[19] = Exp. 8109, ip, 0.025 mg/kg/dose

C=C(OC)C(=O)Nc1cc(OC)c(OC)cc1C(=O)OC1CC(OC2C(=O)C(NC(=O)OC)=C3C(=CCSSSSC)C2(O)C#CC=CC#CC3OC2OC(C)C(NOC3CC(O)C(SC)C(C)O3)C(O)C2OC2CC(OC)C(NC(C)C)CO2)OC(C)C1O (stereo not drawn) [BMY-41339]
MIC [1]: 0.001 µg/mL (≈ 0.000737 µM)
MIC [2]: 0.25 µg/mL (≈ 0.184 µM)
MIC [3]: 0.25 µg/mL (≈ 0.184 µM)
MIC [4]: 0.016 µg/mL (≈ 0.0118 µM)
MIC [5]: 0.002 µg/mL (≈ 0.00147 µM)
MIC [6]: 0.002 µg/mL (≈ 0.00147 µM)
MIC [7]: 0.002 µg/mL (≈ 0.00147 µM)
MIC [8]: 1 µg/mL (≈ 0.737 µM)
MIC [9]: 1 µg/mL (≈ 0.737 µM)
MIC [10]: 0.13 µg/mL (≈ 0.0958 µM)
MIC [11]: 0.25 µg/mL (≈ 0.184 µM)
MIC [12]: 0.25 µg/mL (≈ 0.184 µM)
MIC [13]: 0.13 µg/mL (≈ 0.0958 µM)
MIC [14]: 0.001 µg/mL (≈ 0.000737 µM)
MIC [15]: 0.001 µg/mL (≈ 0.000737 µM)
MIC [16]: 0.001 µg/mL (≈ 0.000737 µM)
T/C ([17]; Exp. 8102, ip, 1.6 μg/kg): 145%
T/C ([17]; Exp. 8102, ip, 3.2 μg/kg (highest dose tested)): 140%
% T/C [17, 18]: 110%
Avg. wt. change on day 6 [17, 18]: 0.8 grams
Survivors on Day 5 [17, 18]: 6/6
% T/C ([17]; Exp. 8102, ip, 0.05 mg/kg/dose): 110%
Avg. wt. change on day 6 ([17]; Exp. 8102, ip, 0.05 mg/kg/dose): 1.3 grams
Survivors on Day 5 ([17]; Exp. 8102, ip, 0.05 mg/kg/dose): 6/6
% T/C ([17]; Exp. 8102, ip, 0.1 mg/kg/dose): 120%
Avg. wt. change on day 6 ([17]; Exp. 8102, ip, 0.1 mg/kg/dose): 0.7 grams
Survivors on Day 5 ([17]; Exp. 8102, ip, 0.1 mg/kg/dose): 6/6
% T/C ([17]; Exp. 8102, ip, 0.2 mg/kg/dose): 140%
Avg. wt. change on day 6 ([17]; Exp. 8102, ip, 0.2 mg/kg/dose): 0.6 grams
Survivors on Day 5 ([17]; Exp. 8102, ip, 0.2 mg/kg/dose): 6/6
% T/C ([17]; Exp. 8102, ip, 0.4 mg/kg/dose): 135%
Avg. wt. change on day 6 ([17]; Exp. 8102, ip, 0.4 mg/kg/dose): 0.6 grams
Survivors on Day 5 ([17]; Exp. 8102, ip, 0.4 mg/kg/dose): 6/6
% T/C ([17]; Exp. 8102, ip, 0.8 mg/kg/dose): 140%
Avg. wt. change on day 6 ([17]; Exp. 8102, ip, 0.8 mg/kg/dose): 0.4 grams
Survivors on Day 5 ([17]; Exp. 8102, ip, 0.8 mg/kg/dose): 6/6
% T/C ([17]; Exp. 8102, ip, 1.6 mg/kg/dose): 145%
Avg. wt. change on day 6 ([17]; Exp. 8102, ip, 1.6 mg/kg/dose): -0.1 grams
Survivors on Day 5 ([17]; Exp. 8102, ip, 1.6 mg/kg/dose): 6/6
% T/C ([17]; Exp. 8102, ip, 3.2 mg/kg/dose): 140%
Avg. wt. change on day 6 ([17]; Exp. 8102, ip, 3.2 mg/kg/dose): 0.7 grams
Survivors on Day 5 ([17]; Exp. 8102, ip, 3.2 mg/kg/dose): 6/6
% T/C ([17]; Exp. 8102, ip, single injections above 0.1 μg/kg, Day 2 only): ≥ 135%
overt drug-associated toxicity (e.g. excessive body weight loss, early deaths) ([17]; Exp. 8102, ip, up to 3.2 μg/kg): no obvious sign of overt drug-associated toxicity
% T/C [17, 19]: 110%
Avg. wt. change on day 6 [17, 19]: 0.8 grams
Survivors on Day 5 [17, 19]: 6/6
T/C ([17]; Exp. 8109, ip, 32 μg/kg (highest dose tested)): 171%
% T/C ([17]; Exp. 8109, ip, 0.05 mg/kg/dose): 110%
Avg. wt. change on day 6 ([17]; Exp. 8109, ip, 0.05 mg/kg/dose): 1.3 grams
Survivors on Day 5 ([17]; Exp. 8109, ip, 0.05 mg/kg/dose): 6/6
% T/C ([17]; Exp. 8109, ip, 0.1 mg/kg/dose): 120%
Avg. wt. change on day 6 ([17]; Exp. 8109, ip, 0.1 mg/kg/dose): 0.7 grams
Survivors on Day 5 ([17]; Exp. 8109, ip, 0.1 mg/kg/dose): 6/6
% T/C ([17]; Exp. 8109, ip, 0.2 mg/kg/dose): 140%
Avg. wt. change on day 6 ([17]; Exp. 8109, ip, 0.2 mg/kg/dose): 0.6 grams
Survivors on Day 5 ([17]; Exp. 8109, ip, 0.2 mg/kg/dose): 6/6
% T/C ([17]; Exp. 8109, ip, 0.4 mg/kg/dose): 135%
Avg. wt. change on day 6 ([17]; Exp. 8109, ip, 0.4 mg/kg/dose): 0.6 grams
Survivors on Day 5 ([17]; Exp. 8109, ip, 0.4 mg/kg/dose): 6/6
% T/C ([17]; Exp. 8109, ip, 0.8 mg/kg/dose): 140%
Avg. wt. change on day 6 ([17]; Exp. 8109, ip, 0.8 mg/kg/dose): 0.4 grams
Survivors on Day 5 ([17]; Exp. 8109, ip, 0.8 mg/kg/dose): 6/6
